Test results from patent publication US20200246284A1 (Academia Sinica, priority 2015, published 2020).
Several values for one entry are separate records, joined by “and”; a condition that tells them apart may be missing. Equal entries are not always repeated.

Key:
CB CD34+ cells (+FCS) = assay: Cytotoxicity normal tissue; assay type: cell-based, human
SMS-CTR rhabdomyosarcoma = assay: Cytotoxicity sarcoma; assay type: cell-based; settings: Homo sapiens; SMS-CTR embryonal type
[1] = tested on: lymphoma cell lines (DLBCL GBC and ABC, mantle cell lymphoma); assay: Cytotoxicity, panel of lymphoma cell lines (Tables 23, 24, 26); assay type: cell-based; settings: Homo sapiens
LY1 = settings: human
Description: (§1) After 72 hours, the cultures were pulsed with Alamar Blue overnight, and the fluorescent intensity of resulted cultures was measured by a Synergy H1 plate-reader (BioTek Inc).

Ly3 (OCI-LY3) = settings: human
Description: as §1

Pfeiffer = settings: human
Description: as §1

in vitro = settings: human, plasma
ICR mice = assay: Acute intravenous 14-day toxicity; settings: for Mortality (N/N): 14 days
[2] = tested on: BCI-NSI hTERT bronchial epithelium; assay: Cytotoxicity normal tissue 72 hr; assay type: cell-based, human; settings: read-out: IC50
[3] = tested on: BEAS2B SV40 bronchial epithelium; assay type: cell-based, human
CALU-6 = assay type: cell-based, human
H125 = assay type: cell-based, human
H1781 = assay type: cell-based, human
H3122 = assay type: cell-based, human
PC9 = assay type: cell-based, human
H1373 = assay type: cell-based, human
H322 = assay type: cell-based, human
H596 = assay type: cell-based, human
HCC2450 = assay type: cell-based, human
H128 = assay: Cytotoxicity SCLC 72 hr alamar blue; assay type: cell-based, human
H249 = assay: Cytotoxicity SCLC 72 hr alamar blue; assay type: cell-based, human

SMILES: CN(C)CCNC(=O)c1cccc(NC(=O)Nc2ccc(N(CCCl)CCCl)cc2)c1 [BO-1055, Ureidomustine]
- IC50 (CB CD34+ cells (+FCS); Homo sapiens, CB CD34+ cells, +FCS): > 10 µM
- IC50 (CB CD34+ cells (+FCS); Homo sapiens, normal CB CD34+, FBS/FCS or serum free): 9.9 to 10.2 µM
- IC50 (CB CD34+ cells (+FCS); normal CB CD34+, FBS/FCS or serum free): 8.5 to 10.5 µM
- IC50 (SMS-CTR rhabdomyosarcoma): 10 µM
- IC50 ([1]; lines with WT Bcl2): ≥ 0.12 µM
- IC50 ([1]; two resistant lines): > 10 µM
- IC50 (LY1): 3.86 µM
- IC50 (Ly3 (OCI-LY3)): 3.5 µM
- IC50 (Pfeiffer): 3.87 µM
- fraction unbound (in vitro): 0.01
- fraction unbound at 2 h (in vitro): 0.01
- Post dosing deaths at >1 hr (ICR mice; 50 mg/kg): 0
- Mortality (N/N) (ICR mice; 50 mg/kg i.v.): 0/6
- Post dosing deaths at >1 hr (ICR mice; 60 mg/kg): 0
- Mortality (N/N) (ICR mice; 60 mg/kg i.v.): 0/6
- Post dosing deaths at >1 hr (ICR mice; 70 mg/kg): 1
- Mortality (N/N) (ICR mice; 70 mg/kg i.v.): 1/6
- Post dosing deaths at >1 hr (ICR mice; 80 mg/kg): 6
- Mortality (N/N) (ICR mice; 80 mg/kg i.v.): all mice died and 6/6
- Post dosing deaths at >1 hr (ICR mice; 100 mg/kg): 6
- Mortality (N/N) (ICR mice; 100 mg/kg i.v.): 6/6

SMILES: N.N.[Cl][Pt][Cl] [Cisplatin]
- IC50 [2]: 30 µM
- IC50 [3]: 4.1 µM
- IC50 (CALU-6): 3.25 µM
- IC50 (H125): 1.5 µM
- IC50 (H1781): 1.67 µM
- IC50 (H3122): ≥ 30 µM
- IC50 (PC9): 8.12 µM
- IC50 (H1373): 9.46 µM
- IC50 (H322): ≥ 10 µM
- IC50 (H596): ≥ 10 µM
- IC50 (HCC2450): ≥ 80 µM
- IC50 (H128): 4.79 µM
- IC50 (H249): 1.51 µM
